# pIC50: −log10 of the molar value.
# How the values were obtained:
# [1] = system: MCF-7 human breast cancer cells; assay: Cytotoxicity test, XTT assay; format: cell-based; design: Average (XTT metabolic signal): unit not given here; details: for pIC50: 74 hr incubation, XTT
# Experimental: MCF-7 human breast cancer cells (ATCC HTB-22) were plated in 96-well plates at an initial density of 5000 cells per well in 90 μL of RMPI 1640 supplemented with 10% fetal bovine serum, 100 IU penicillin, and 100 μg/mL streptomycin, 2 mM L-glutamine, and maintained at 37° C. and 5% CO2 atmosphere. After 24 hr, stock solutions of 17-GAOH in DMSO and GA-(VKG)8ELP1-120 were diluted 10-fold with growth media and added to wells (6 wells) as […] (1% v/v final DMSO concentration). The cells were incubated with the compounds for 74 hr and the metabolic rate was determined using an XTT™ assay kit (Sigma) according to the manufacturer's instructions. The concentrations inhibiting cell growth by 50% (IC50) were determined by fixed Hill slope regression with SIGMA PLOT™ 2004 (Systat Software, Inc.).
# mouse mammary tumors = details: 43° C. hyperthermia; cited from earlier work
smiles,measurement,setting,value
"CO[C@H]1/C=C\C=C(/C)C(=O)NC2=CC(=O)C(NCCO)=C(C[C@@H](C)C[C@H](OC)[C@H](O)[C@@H](C)/C=C(\C)[C@@H]1OC(N)=O)C2=O [17-HEA-DMGA, 17-β-hydroxyethylamino-17-demethoxygeldanamycin]",pIC50,[1]; test 1,6.07
same,Average (XTT metabolic signal),"[1]; test 1, final concentration 0.1 nM",1158
same,Average (XTT metabolic signal),"[1]; test 1, final concentration 1 nM",1288
same,Average (XTT metabolic signal),"[1]; test 1, final concentration 10 nM",1274
same,Average (XTT metabolic signal),"[1]; test 1, final concentration 100 nM",1588
same,Average (XTT metabolic signal),"[1]; test 1, final concentration 1,000 nM",344
same,Average (XTT metabolic signal),"[1]; test 1, final concentration 10,000 nM",114
same,pIC50,[1]; test 2,6.14
same,Average (XTT metabolic signal),"[1]; test 2, final concentration 50 nM",788.5
same,Average (XTT metabolic signal),"[1]; test 2, final concentration 100 nM",999.7
same,Average (XTT metabolic signal),"[1]; test 2, final concentration 250 nM",774.3
same,Average (XTT metabolic signal),"[1]; test 2, final concentration 500 nM",515.0
same,Average (XTT metabolic signal),"[1]; test 2, final concentration 1,000 nM",297.5
same,Average (XTT metabolic signal),"[1]; test 2, final concentration 2,000 nM",46.9
N.N.[Cl][Pt][Cl] [Cisplatin],increase of thermal enhancement ratio (TER),mouse mammary tumors,1.4-5.0 fold

# — patent publication US20100119529A1, “ELASTIN-LIKE POLYMER DELIVERY VEHICLES” (priority 2006, published 2010)
